# From BindingDB's records for doi:10.1016/j.bmcl.2011.11.008 (Korea Research Institute of Bioscience and Biotechnology, 2011)
# Assays:
# [1] = Inhibition of PRL-3-mediated cell migration in human DLD1 cells after 15 hrs by crystal violet staining based microscopic assay
# [2] = Inhibition of PRL-3-mediated cell invasion in human DLD1 cells after 20 hrs using crystal violet staining by Matrigel invasion assay
smiles,measurement,setting,value
"Cc1cc(O)c2c(c1)C(=O)c1cc(O)cc(O)c1C2=O [1,3,8-trihydroxy-6-methylanthra-9,10-quinone]",IC50,[1],28 µM
same,IC50,[2],35 µM
